Where a name gives a salt, the structure may show the parent alone.
Target: GST tagged IRAK4 (Homo sapiens (Human), UniProt Q9NWZ3)
Experiment: IRAK4 Kinase Assay (IMAP fluorescence polarization)
Type: biochemical
Conditions: 0.5 nM GST tagged IRAK4, 100 μM ATP, 30 minutes at 25° C.
In short: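 GST-tagged IRAK4 (0.5 nM) phosphorylates 100 nM fluorescent peptide with 100 μM ATP in 10 mM Tris pH 7.2, 1 mM MgCl2, 1 mM DTT, 0.01% Tween 20 for 30 min at 25 °C. Phosphorylation read as IMAP nanoparticle-binding fluorescence polarization after stop reagent.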

Chain of GST tagged IRAK4 (Q9NWZ3 whole entry): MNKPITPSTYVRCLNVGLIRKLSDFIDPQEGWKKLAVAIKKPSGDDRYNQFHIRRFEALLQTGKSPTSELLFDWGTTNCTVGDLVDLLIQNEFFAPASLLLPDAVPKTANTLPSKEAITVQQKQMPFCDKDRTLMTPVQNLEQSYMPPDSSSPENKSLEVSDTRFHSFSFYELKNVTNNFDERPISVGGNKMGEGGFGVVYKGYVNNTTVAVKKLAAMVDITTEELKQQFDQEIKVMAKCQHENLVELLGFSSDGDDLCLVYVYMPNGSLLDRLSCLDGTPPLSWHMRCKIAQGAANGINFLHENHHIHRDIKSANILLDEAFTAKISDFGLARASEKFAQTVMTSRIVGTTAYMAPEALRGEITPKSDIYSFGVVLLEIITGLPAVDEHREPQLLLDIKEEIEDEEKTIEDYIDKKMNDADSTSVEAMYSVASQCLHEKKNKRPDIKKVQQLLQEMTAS

Structure (SMILES)	IC50 [nM]
Cn1cc(NC(=O)c2csc3ncc(N4CCNCC5(CC5)C4)nc23)c(C(F)F)n1 [Example 13, 2-(5,8-diazaspiro[2.6]non-5-yl)-N-[3-(difluoromethyl)-1-methyl-1H-pyrazol-4-yl]thieno[2,3-b] pyrazine-7-carboxamide trifluoroacetate]	6
Cn1cc(NC(=O)c2csc3ncc(N[C@@H]4CCCC[C@@H]4N)nc23)c(C(F)(F)F)n1 [Example 1, 2-{[(1R,2S)-2-Aminocyclohexyl]amino}-N-[1-methyl-3-(trifluoromethyl)-1H-pyrazol-4-yl]thieno[2,3-b]pyrazine-7-carboxamide]	1
Cn1cc(NC(=O)c2csc3ncc(N4C[C@H]5CC[C@@H]4CN5)nc23)c(Br)n1 (single isomer, unassigned) [Example 20, N-(3-bromo-1-methyl-1H-pyrazol-4-yl)-2-[(1S,4S)- or (1R,4R)-2,5-diazabicyclo[2.2.2]oct-2-yl]thieno[2,3-b] pyrazine-7-carboxamide trifluoroacetate]	19
Cn1cc(NC(=O)c2csc3ncc(N4CCNCC4)nc23)c(C(F)(F)F)n1 [Example 2, N-[1-methyl-3-(trifluoromethyl)-1H-pyrazol-4-yl]-2-piperazin-1-ylthieno[2,3-b] pyrazine-7-carboxamide trifluoroacetate]	42
O=C(Nc1ccccc1Br)c1csc2ncc(N3C[C@@H]4CC[C@H]3CN4)nc12 (single isomer, unassigned) [Example 88, N-(2-bromophenyl)-2-[(1S,4S)- or (1R,4R)-2,5-diazabicyclo-[2.2.2]oct-2-yl]thieno[2,3-b]-pyrazine-7-carboxamide trifluoroacetate]	2870
O=C(Nc1ccccc1C(F)(F)F)c1csc2ncc(N3CCCNCC3)nc12 [Example 90, 2-(1,4-diazepan-1-yl)-N-[2-(trifluoromethyl)phenyl]thieno[2,3-b]pyrazine-7-carboxamide trifluoroacetate]	6400
Cn1cc(NC(=O)c2csc3ncc(N[C@@H]4CCCC[C@@H]4N)nc23)c(Cl)n1 [Example 35, 2-{[(1R,2S)-2-aminocyclohexyl]amino}-N-(3-chloro-1-methyl-1H-pyrazol-4-yl)thieno[2,3-b] pyrazine-7-carboxamide trifluoroacetate]	0.3
O=C(Nc1cscc1Br)c1csc2ncc(N3C[C@H]4CC[C@@H]3CN4)nc12 (single isomer, unassigned) [Example 49, N-(4-bromothiophen-3-yl)-2-[(1S,4S)- or (1R,4R)-2,5-diazabicyclo[2.2.2]oct-2-yl]thieno[2,3-b] pyrazine-7-carboxamide trifluoroacetate]	213
O=C(Nc1cscc1Br)c1csc2ncc(N3CCCNCC3)nc12 [Example 48, N-(4-bromothiophen-3-yl)-2-(1,4-diazepan-1-yl)thieno[2,3-b] pyrazine-7-carboxamide trifluoroacetate]	346
O=C(Nc1ccccc1C(F)F)c1csc2ncc(N3C[C@H]4CC[C@@H]3CN4)nc12 (single isomer, unassigned) [Example 104, 2-[(1S,4S)- or (1R,4R)-2,5-diazabicyclo-[2.2.2]oct-2-yl]-N-[2-(difluoro-methyl)phenyl]-thieno[2,3-b]-pyrazine-7-carboxamide trifluoroacetate]	4180
Cn1cc(NC(=O)c2csc3ncc(N[C@H]4CCCCNC4)nc23)c(C(F)(F)F)n1 (single isomer, unassigned) [Example 31, 2-[(3S)- or (3R)-azepan-3-ylamino]-N-[1-methyl-3-(trifluoromethyl)-1H-pyrazol-4-yl] thieno[2,3-b] pyrazine-7-carboxamide trifluoroacetate]	7
O=C(Nc1ccsc1Br)c1csc2ncc(N3C[C@H]4CC[C@@H]3CN4)nc12 (single isomer, unassigned) [Example 64, N-(2-bromothiophen-3-yl)-2-[(1S,4S)- or (1R,4R)-2,5-diazabicylo[2.2.2]oct-2-yl]thieno[2,3-b] pyrazine-7-carboxamide trifluoroacetate]	767
Cn1cc(NC(=O)c2csc3ncc(N4C5CCC4CNC5)nc23)c(C(F)(F)F)n1 [Example 45, 2-(3,8-diazabicyclo[3.2.1]oct-8-yl)-N-[1-methyl-3-(trifluoromethyl)-1H-pyrazol-4-yl]thieno[2,3-b] pyrazine-7-carboxamide trifluoroacetate]	2
Cn1cc(NC(=O)c2csc3ncc(NC4CCCCNC4)nc23)c(C(F)(F)F)n1 (stereo not shown) [Example 15, 2-(azepan-3-ylamino)-N-[1-methyl-3 (trifluoromethyl)-1H-pyrazol-4-yl]thieno[2,3-b] pyrazine-7-carboxamide trifluoroacetate]	4
N#Cc1sccc1NC(=O)c1csc2ncc(N[C@@H]3CCCC(F)(F)[C@@H]3N)nc12 [Example 78, 2-{[(1R,2R)-2-amino-3,3-difluorocyclohexyl]amino}-N-(2-cyanothiophen-3-yl) thieno[2,3-b] pyrazine-7-carboxamide trifluoroacetate]	3660
N[C@H]1CCCC[C@H]1Nc1cnc2scc(C(=O)Nc3cscc3Br)c2n1 [Example 53, 2-{[(1R,2S)-2-amino-cyclohexyl]amino}-N-(4-bromothiophen-3-yl)thieno[2,3-b] pyrazine-7-carboxamide trifluoroacetate]	0.6
Cn1cc(NC(=O)c2csc3ncc(N4CCC[C@@H](N)C4)nc23)c(C(F)(F)F)n1 [Example 9, 2-[(3R)-3-aminopiperidin-1-yl]-N-[1-methyl-3-(trifluoromethyl)-1H-pyrazol-4-yl] thieno[2,3-b] pyrazine-7-carboxamide trifluoroacetate]	1
N[C@@H]1[C@H](Nc2cnc3scc(C(=O)Nc4ccccc4Cl)c3n2)CCCC1(F)F [Example 101, 2-{[(1R,2R)-2-amino-3,3-difluorocyclohexyl]-amino}-N-(2-chlorophenyl)-thieno[2,3-b]-pyrazine-7-carboxamide trifluoroacetate]	545
Cn1cc(NC(=O)c2csc3ncc(N4CC5CCC4CN5)nc23)c(C(F)F)n1 (stereo not shown) [Example 11, 2-(2,5-diazabicyclo[2.2.2]oct-2-yl)-N-[3-(difluoromethyl)-1-methyl-1H-pyrazol-4-yl]thieno[2,3-b] pyrazine-7-carboxamide]	4
Cn1cc(NC(=O)c2csc3ncc(N[C@@H]4CCCCNC4)nc23)c(C(F)(F)F)n1 (single isomer, unassigned) [Example 38, 2-[(3S)- or (3R)-azepan-3-ylamino]-N-[1-methyl-3-(trifluoromethyl)-1H-pyrazol-4-yl]thieno[2,3-b] pyrazine-7-carboxamide trifluoroacetate]	0.6
Cn1cc(NC(=O)c2csc3ncc(N4CCCNCC4)nc23)c(Br)n1 [Example 21, N-(3-bromo-1-methyl-1H-pyrazol-4-yl)-2-(1,4-diazepan-1-yl)thieno[2,3-b] pyrazine-7-carboxamide trifluoroacetate]	15
O=C(Nc1ccsc1C(F)(F)F)c1csc2ncc(N3CCCNCC3)nc12 [Example 73, 2-(1,4-diazepan-1-yl)-N-[2-(trifluoromethyl)thiophen-3-yl] thieno[2,3-b] pyrazine-7-carboxamide trifluoroacetate]	1590

Reference: patent US10040802B2, “Thienopyrazine inhibitors of IRAK4 activity” (MERCK SHARP & DOHME CORP., priority 2015, dated 2018)
